In brackets after ≈: the same amount, converted by molar mass.
Tests used:
[1] = test system: Streptococcus pneumoniae; experiment: Antibacterial activity against erythromycin-susceptible Streptococcus pneumoniae ATCC 49619
[2] = test system: Streptococcus pneumoniae; experiment: Antibacterial activity against erythromycin-resistant Streptococcus pneumoniae B1 encoded by erm gene
[3] = test system: Streptococcus pneumoniae; experiment: Antibacterial activity against erythromycin-resistant Streptococcus pneumoniae A22072 encoded by mef gene
[4] = test system: Streptococcus pneumoniae; experiment: Antibacterial activity against erythromycin-resistant Streptococcus pneumoniae AB11 encoded by erm and mef gene

Structure (SMILES): CC[C@H]1OC(=O)[C@H](C)[C@@H](O[C@H]2C[C@@](C)(OC)[C@@H](OC(=O)NCc3ccc(OC)cc3)[C@H](C)O2)[C@H](C)[C@@H](O[C@@H]2O[C@H](C)C[C@H](N(C)C)[C@H]2O)[C@@](C)(O)C[C@@H](C)CN(C)[C@H](C)[C@@H](O)[C@]1(C)O
- MIC [1]: 0.12 µg/mL (≈ 0.132 µM)
- MIC [2]: 64 µg/mL (≈ 70.2 µM)
- MIC [3]: 4 µg/mL (≈ 4.39 µM)
- MIC [4]: 32 µg/mL (≈ 35.1 µM)

Structure (SMILES): CC[C@H]1OC(=O)[C@H](C)[C@@H](O[C@H]2C[C@@](C)(OC)[C@@H](OC(=O)NCc3ccc(F)cc3)[C@H](C)O2)[C@H](C)[C@@H](O[C@@H]2O[C@H](C)C[C@H](N(C)C)[C@H]2O)[C@@](C)(O)C[C@@H](C)CN(C)[C@H](C)[C@@H](O)[C@]1(C)O
- MIC [1]: < 0.03 µg/mL
- MIC [2]: 4 µg/mL (≈ 4.44 µM)
- MIC [3]: 0.25 µg/mL (≈ 0.278 µM)
- MIC [4]: 16 µg/mL (≈ 17.8 µM)

Structure (SMILES): CC[C@H]1OC(=O)[C@H](C)[C@@H](O[C@H]2C[C@@](C)(OC)[C@@H](OC(=O)NCCc3ccccc3Cl)[C@H](C)O2)[C@H](C)[C@@H](O[C@@H]2O[C@H](C)C[C@H](N(C)C)[C@H]2O)[C@@](C)(O)C[C@@H](C)CN(C)[C@H](C)[C@@H](O)[C@]1(C)O
- MIC [1]: < 0.03 µg/mL
- MIC [2]: 8 µg/mL (≈ 8.6 µM)
- MIC [3]: 1 µg/mL (≈ 1.07 µM)
- MIC [4]: 8 µg/mL (≈ 8.6 µM)

Structure (SMILES): CC[C@H]1OC(=O)[C@H](C)[C@@H](O[C@H]2C[C@@](C)(OC)[C@@H](OC(=O)NCCc3ccc(O)cc3)[C@H](C)O2)[C@H](C)[C@@H](O[C@@H]2O[C@H](C)C[C@H](N(C)C)[C@H]2O)[C@@](C)(O)C[C@@H](C)CN(C)[C@H](C)[C@@H](O)[C@]1(C)O
- MIC [1]: < 0.03 µg/mL
- MIC [2]: 4 µg/mL (≈ 4.39 µM)
- MIC [3]: 0.5 µg/mL (≈ 0.548 µM)
- MIC [4]: 2 µg/mL (≈ 2.19 µM)

Structure (SMILES): CC[C@H]1OC(=O)[C@H](C)[C@@H](O[C@H]2C[C@@](C)(OC)[C@@H](OC(=O)NCc3ccccc3)[C@H](C)O2)[C@H](C)[C@@H](O[C@@H]2O[C@H](C)C[C@H](N(C)C)[C@H]2O)[C@@](C)(O)C[C@@H](C)CN(C)[C@H](C)[C@@H](O)[C@]1(C)O
- MIC [1]: < 0.03 µg/mL
- MIC [2]: 16 µg/mL (≈ 18.1 µM)
- MIC [3]: 0.06 µg/mL (≈ 0.068 µM)
- MIC [4]: 64 µg/mL (≈ 72.6 µM)

Structure (SMILES): C=CCNC(=O)O[C@H]1[C@H](C)O[C@@H](O[C@H]2[C@H](C)[C@@H](O[C@@H]3O[C@H](C)C[C@H](N(C)C)[C@H]3O)[C@@](C)(O)C[C@@H](C)CN(C)[C@H](C)[C@@H](O)[C@](C)(O)[C@@H](CC)OC(=O)[C@@H]2C)C[C@@]1(C)OC
- MIC [1]: < 0.03 µg/mL
- MIC [2]: 16 µg/mL (≈ 19.2 µM)
- MIC [3]: 1 µg/mL (≈ 1.2 µM)
- MIC [4]: 32 µg/mL (≈ 38.5 µM)

Structure (SMILES): CC[C@H]1OC(=O)[C@H](C)[C@@H](O[C@H]2C[C@@](C)(OC)[C@@H](OC(=O)NC(C)C)[C@H](C)O2)[C@H](C)[C@@H](O[C@@H]2O[C@H](C)C[C@H](N(C)C)[C@H]2O)[C@@](C)(O)C[C@@H](C)CN(C)[C@H](C)[C@@H](O)[C@]1(C)O
- MIC [1]: 0.12 µg/mL (≈ 0.144 µM)
- MIC [2]: 128 µg/mL (≈ 153 µM)
- MIC [3]: 8 µg/mL (≈ 9.59 µM)
- MIC [4]: 256 µg/mL (≈ 307 µM)

Structure (SMILES): CC[C@H]1OC(=O)[C@H](C)[C@@H](O[C@H]2C[C@@](C)(OC)[C@@H](OC(=O)NCCc3ccccc3)[C@H](C)O2)[C@H](C)[C@@H](O[C@@H]2O[C@H](C)C[C@H](N(C)C)[C@H]2O)[C@@](C)(O)C[C@@H](C)CN(C)[C@H](C)[C@@H](O)[C@]1(C)O
- MIC [1]: 0.06 µg/mL (≈ 0.067 µM)
- MIC [2]: 8 µg/mL (≈ 8.93 µM)
- MIC [3]: 1 µg/mL (≈ 1.12 µM)
- MIC [4]: 32 µg/mL (≈ 35.7 µM)

Structure (SMILES): CC[C@H]1OC(=O)[C@H](C)[C@@H](O[C@H]2C[C@@](C)(OC)[C@@H](OC(=O)NCCc3ccc4c(c3)OCO4)[C@H](C)O2)[C@H](C)[C@@H](O[C@@H]2O[C@H](C)C[C@H](N(C)C)[C@H]2O)[C@@](C)(O)C[C@@H](C)CN(C)[C@H](C)[C@@H](O)[C@]1(C)O
- MIC [1]: < 0.03 µg/mL
- MIC [2]: 8 µg/mL (≈ 8.51 µM)
- MIC [3]: 0.5 µg/mL (≈ 0.532 µM)
- MIC [4]: 8 µg/mL (≈ 8.51 µM)

Structure (SMILES): CCCNC(=O)O[C@H]1[C@H](C)O[C@@H](O[C@H]2[C@H](C)[C@@H](O[C@@H]3O[C@H](C)C[C@H](N(C)C)[C@H]3O)[C@@](C)(O)C[C@@H](C)CN(C)[C@H](C)[C@@H](O)[C@](C)(O)[C@@H](CC)OC(=O)[C@@H]2C)C[C@@]1(C)OC
- MIC [1]: 0.12 µg/mL (≈ 0.144 µM)
- MIC [2]: 64 µg/mL (≈ 76.7 µM)
- MIC [3]: 4 µg/mL (≈ 4.8 µM)
- MIC [4]: 64 µg/mL (≈ 76.7 µM)

Structure (SMILES): CCCCNC(=O)O[C@H]1[C@H](C)O[C@@H](O[C@H]2[C@H](C)[C@@H](O[C@@H]3O[C@H](C)C[C@H](N(C)C)[C@H]3O)[C@@](C)(O)C[C@@H](C)CN(C)[C@H](C)[C@@H](O)[C@](C)(O)[C@@H](CC)OC(=O)[C@@H]2C)C[C@@]1(C)OC
- MIC [1]: < 0.03 µg/mL
- MIC [2]: 8 µg/mL (≈ 9.43 µM)
- MIC [3]: 1 µg/mL (≈ 1.18 µM)
- MIC [4]: 128 µg/mL (≈ 151 µM)

Structure (SMILES): CCCCCNC(=O)O[C@H]1[C@H](C)O[C@@H](O[C@H]2[C@H](C)[C@@H](O[C@@H]3O[C@H](C)C[C@H](N(C)C)[C@H]3O)[C@@](C)(O)C[C@@H](C)CN(C)[C@H](C)[C@@H](O)[C@](C)(O)[C@@H](CC)OC(=O)[C@@H]2C)C[C@@]1(C)OC
- MIC [1]: < 0.03 µg/mL
- MIC [2]: 8 µg/mL (≈ 9.28 µM)
- MIC [3]: 0.5 µg/mL (≈ 0.58 µM)
- MIC [4]: 32 µg/mL (≈ 37.1 µM)

Structure (SMILES): CC[C@H]1OC(=O)[C@H](C)[C@@H](O[C@H]2C[C@@](C)(OC)[C@@H](OC(=O)NC3CCCCC3)[C@H](C)O2)[C@H](C)[C@@H](O[C@@H]2O[C@H](C)C[C@H](N(C)C)[C@H]2O)[C@@](C)(O)C[C@@H](C)CN(C)[C@H](C)[C@@H](O)[C@]1(C)O
- MIC [1]: 0.12 µg/mL (≈ 0.137 µM)
- MIC [2]: 32 µg/mL (≈ 36.6 µM)
- MIC [3]: 8 µg/mL (≈ 9.15 µM)
- MIC [4]: 128 µg/mL (≈ 146 µM)

Structure (SMILES): CC[C@H]1OC(=O)[C@H](C)[C@@H](O[C@H]2C[C@@](C)(OC)[C@@H](O)[C@H](C)O2)[C@H](C)[C@@H](O[C@@H]2O[C@H](C)C[C@H](N(C)C)[C@H]2O)[C@](C)(O)C[C@@H](C)CN(C)[C@H](C)[C@@H](O)[C@]1(C)O [AZITHROMYCIN]
- MIC [1]: < 0.03 µg/mL
- MIC [2]: 128 µg/mL (≈ 171 µM)
- MIC [3]: 4 µg/mL (≈ 5.34 µM)
- MIC [4]: 256 µg/mL (≈ 342 µM)

Structure (SMILES): CC[C@H]1OC(=O)[C@H](C)[C@@H](O[C@H]2C[C@@](C)(OC)[C@@H](O)[C@H](C)O2)[C@H](C)[C@@H](O[C@@H]2O[C@H](C)C[C@H](N(C)C)[C@H]2O)[C@](C)(OC)C[C@@H](C)C(=O)[C@H](C)[C@@H](O)[C@]1(C)O [CLARITHROMYCIN]
- MIC [1]: < 0.03 µg/mL
- MIC [2]: 64 µg/mL (≈ 85.6 µM)
- MIC [3]: 4 µg/mL (≈ 5.35 µM)
- MIC [4]: 128 µg/mL (≈ 171 µM)

— ChEMBL document CHEMBL1154057, “Synthesis and antibacterial activity of novel 15-membered macrolide derivatives: 4''-carbamate, 11,12-cyclic carbonate-4''-carbamate and 11,4''-di-O-arylcarbamoyl analogs of azithromycin” (2009)
